COc1cc(Cl)nc(N)n1
Conditions	solubility (mole fraction)
in 1,4-dioxane, 283.15 K	0.0229
in 1,4-dioxane, 288.15 K	0.0264
in 1,4-dioxane, 293.15 K	0.0316
in 1,4-dioxane, 298.15 K	0.0367
in 1,4-dioxane, 303.15 K	0.0422
in 1,4-dioxane, 308.15 K	0.0493
in 1,4-dioxane, 313.15 K	0.0569
in 1,4-dioxane, 318.15 K	0.0648
in 1,4-dioxane, 323.15 K	0.0746
in DMF, 273.15 K	0.0496
in DMF, 278.15 K	0.0544
in DMF, 283.15 K	0.0595
in DMF, 288.15 K	0.0648
in DMF, 293.15 K	0.0712
in DMF, 298.15 K	0.0775
in DMF, 303.15 K	0.0846
in DMF, 308.15 K	0.0926
in DMF, 313.15 K	0.101
in DMF, 318.15 K	0.11
in DMF, 323.15 K	0.12
in acetone, 273.15 K	0.0076
in acetone, 278.15 K	0.00947
in acetone, 283.15 K	0.0117
in acetone, 288.15 K	0.0143
in acetone, 293.15 K	0.0174
in acetone, 298.15 K	0.0211
in acetone, 303.15 K	0.0255
in acetone, 308.15 K	0.0302
in acetone, 313.15 K	0.0358
in acetone, 318.15 K	0.0422
in acetone, 323.15 K	0.0492
in acetonitrile, 273.15 K	0.00136
in acetonitrile, 278.15 K	0.00174
in acetonitrile, 283.15 K	0.00223
in acetonitrile, 288.15 K	0.00276
in acetonitrile, 293.15 K	0.00345
in acetonitrile, 298.15 K	0.00426
in acetonitrile, 303.15 K	0.00523
in acetonitrile, 308.15 K	0.00633
in acetonitrile, 313.15 K	0.00773
in acetonitrile, 318.15 K	0.00927
in acetonitrile, 323.15 K	0.0111
in chloroform, 273.15 K	0.00237
in chloroform, 278.15 K	0.00306
in chloroform, 283.15 K	0.00389
in chloroform, 288.15 K	0.00492
in chloroform, 293.15 K	0.00612
in chloroform, 298.15 K	0.00758
in chloroform, 303.15 K	0.00924
in chloroform, 308.15 K	0.0114
in chloroform, 313.15 K	0.0138
in chloroform, 318.15 K	0.0166
in chloroform, 323.15 K	0.0197
in ethanol, 273.15 K	0.00128
in ethanol, 278.15 K	0.00163
in ethanol, 283.15 K	0.00206
in ethanol, 288.15 K	0.00259
in ethanol, 293.15 K	0.00323
in ethanol, 298.15 K	0.00396
in ethanol, 303.15 K	0.00488
in ethanol, 308.15 K	0.00598
in ethanol, 313.15 K	0.00733
in ethanol, 318.15 K	0.00886
in ethanol, 323.15 K	0.0106
in ethyl acetate, 273.15 K	0.00547
in ethyl acetate, 278.15 K	0.00687
in ethyl acetate, 283.15 K	0.00856
in ethyl acetate, 288.15 K	0.0105
in ethyl acetate, 293.15 K	0.0129
in ethyl acetate, 298.15 K	0.0155
in ethyl acetate, 303.15 K	0.0188
in ethyl acetate, 308.15 K	0.023
in ethyl acetate, 313.15 K	0.0276
in ethyl acetate, 318.15 K	0.033
in ethyl acetate, 323.15 K	0.0389
in ethylbenzene, 273.15 K	0.000515
in ethylbenzene, 278.15 K	0.000689
in ethylbenzene, 283.15 K	0.000887
in ethylbenzene, 288.15 K	0.00115
in ethylbenzene, 293.15 K	0.0015
in ethylbenzene, 298.15 K	0.00184
in ethylbenzene, 303.15 K	0.00238
in ethylbenzene, 308.15 K	0.00299
in ethylbenzene, 313.15 K	0.00367
in ethylbenzene, 318.15 K	0.00462
in ethylbenzene, 323.15 K	0.00567
in isopropanol, 273.15 K	0.00113
in isopropanol, 278.15 K	0.00149
in isopropanol, 283.15 K	0.0019
in isopropanol, 288.15 K	0.00241
in isopropanol, 293.15 K	0.00302
in isopropanol, 298.15 K	0.00377
in isopropanol, 303.15 K	0.0046
in isopropanol, 308.15 K	0.00574
in isopropanol, 313.15 K	0.00701
in isopropanol, 318.15 K	0.00857
in isopropanol, 323.15 K	0.0105
in methanol, 273.15 K	0.00126
in methanol, 278.15 K	0.00159
in methanol, 283.15 K	0.00199
in methanol, 288.15 K	0.00246
in methanol, 293.15 K	0.0031
in methanol, 298.15 K	0.00375
in methanol, 303.15 K	0.00463
in methanol, 308.15 K	0.00555
in methanol, 313.15 K	0.00675
in methanol, 318.15 K	0.00809
in methanol, 323.15 K	0.00962
in n-propanol, 273.15 K	0.00122
in n-propanol, 278.15 K	0.00158
in n-propanol, 283.15 K	0.00201
in n-propanol, 288.15 K	0.00256
in n-propanol, 293.15 K	0.00323
in n-propanol, 298.15 K	0.00407
in n-propanol, 303.15 K	0.00502
in n-propanol, 308.15 K	0.00618
in n-propanol, 313.15 K	0.0075
in n-propanol, 318.15 K	0.00916
in n-propanol, 323.15 K	0.0113
in toluene, 273.15 K	0.000694
in toluene, 278.15 K	0.000889
in toluene, 283.15 K	0.00115
in toluene, 288.15 K	0.00148
in toluene, 293.15 K	0.0019
in toluene, 298.15 K	0.00241
in toluene, 303.15 K	0.003
in toluene, 308.15 K	0.00374
in toluene, 313.15 K	0.00463
in toluene, 318.15 K	0.00573
in toluene, 323.15 K	0.00703
